{"source": "patent US20260115312A1", "about": "“Conjugates for neuroretinal drug delivery” (Mireca Medicines GmbH, priority 2022, published 2026)", "key": {"MCT2": {"target": "MCT2", "details": "cited from earlier work"}, "MCT1": {"target": "MCT1", "details": "cited from earlier work"}, "[1]": {"test_system": "photoreceptors in rd10 retinal explant cultures", "assay": "Remaining photoreceptor rows in rd10 organotypic retinal explant cultures", "assay_type": "cell-based, mouse", "details": "treated P11 until P17 or P24, DSPC-containing liposomes, same drug concentration", "experimental": "FIG. 4A—Treatment of organotypic retinal explant cultures derived from the rd10 mice model. Retinas were cultured at P9 and treated from P11 until either P17 or P24 with free neuroprotective CN03 or with CN03 encapsulated in pyruvate-liposomes (Lp-Pyr/CN03). Representative images of retinal explant culture sections at P17 and P24. DAPI used as nuclear stain. ONL=outer nuclear layer, INL=inner nuclear layer.\nFIG. 4B—As for 4A, shown is the number of remaining photoreceptor rows in the tissue sections. NT and CN03 substantially overlap. Results represent mean±SD. At P17: n=4-6. At P24: n=4-5. **=p≤0.01 between the Lp-Pyr/CN03 and CN03 or NT group. Statistical analysis: Two-way ANOVA with Tukey's multiple comparison test. Scale bar 50 μm.\n(§1) Retinas derived from the rd1 or rd10 mouse models were cultured following the protocol described above and treated with the drugs CN03 or CN04. A treatment was done by applying a 20 μL solution containing 160 μM drug (either loaded in liposomes or in a free solution) to the top of the cultures. […] 11 z-stacks 1 μm apart were recorded, and from the projected images, the number of TUNEL-positive cells in the outer nuclear layer was manually counted. For the rd10 derived cultures, the average number of photoreceptor rows residing in the outer nuclear layer was counted from microscopy images, using the same imaging method. […]"}, "[2]": {"test_system": "photoreceptors in rd1 retinal explant cultures", "assay": "TUNEL assay of dying photoreceptors in rd1 organotypic retinal explant cultures", "assay_type": "cell-based, mouse", "details": "free drug solution, 160 μM in 20 μL, final 3.14 μM, P7-P11", "experimental": "FIG. 3A—Treatment of organotypic retinal explant cultures derived from the rd1 mouse model. Retinas were cultured at P5 and treated with either liposome-encapsulated or non-encapsulated (free) neuroprotective drugs (CN03 or CN04) from P7-P11. Assuming an equal distribution across the entire culturing medium, the final drug concentration was 3.14 μM for all treatments. The amount of dying photoreceptors in tissue sections from cultures under various treatment conditions was assessed using the TUNEL assay. DAPI was used to distinguish the outer nuclear layer (ONL). INL=inner nuclear layer. Scale bar 50 μm.\nFIG. 3B—As for 3A, shown are percentages of dying (TUNEL+) cells in the ONL. Under non-treated (NT) conditions, the number of TUNEL+ cells are high in the rd1 model. Administration of free CN03 or CN04 had no significant effect on cell death. […]\nas §1, with “CN04.” for “CN04. A treatment was done by applying a 20 μL solution containing 160 μM drug (either loaded in liposomes or in a free solution) to the top of the cultures.”"}, "[3]": {"assay": "In vitro drug release from liposomes", "assay_type": "physicochemical", "details": "liposomes according to the invention, in vitro set-up", "experimental": "Complete release of CN04 from liposomes according to the invention was shown in an in vitro set-up within 48 h. The release rate for CN03 and CN04 can be lowered by precipitation within the liposome cavity with a specific salt using a remote loading technique similar to what has been done for liposomal doxorubicin formulations. CN03 has previously been remote loaded in similar liposomes using calcium acetate salts (Vighi, E., et al., PNAS, 2018, 115(13))."}}}
{"molecule": "Cc1n[nH]c(C)c1Cc1sc2c(c1C(=O)N1C[C@H](O)CO1)c(=O)n(C)c(=O)n2CC(C)C", "note": "[AR-C155858]", "values": [{"measurement": "Ki", "setting": "MCT2", "value": "< 10", "unit": "nM"}]}
{"molecule": "Cc1[nH]nc(C(F)(F)F)c1Cc1sc2c(c1C(=O)N1C[C@](C)(O)CO1)c(=O)n(C)c(=O)n2C(C)C", "note": "[AZD3965]", "values": [{"measurement": "Ki", "setting": "MCT1", "value": 1.6, "unit": "nM"}]}
{"molecule": "O=c1c2nc(Br)n([C@@H]3O[C@@H]4CO[P@@](=O)(S)O[C@@H]4C3O)c2nc2[nH]c(-c3ccccc3)cn12", "note": "(stereo partly drawn) [CN03, Rp-8-Br-PET-cGMPS]", "values": [{"measurement": "Number of remaining photoreceptor rows", "setting": "[1]", "value": "did not achieve a rescue effect"}, {"measurement": "Dying photoreceptors (TUNEL+ cells in ONL)", "setting": "[2]", "value": "no significant reduction in dying photoreceptors"}]}
{"molecule": "O=c1c2nc(Sc3ccc(Cl)cc3)n([C@@H]3O[C@@H]4CO[P@@](=O)(S)O[C@@H]4C3O)c2nc2[nH]c(-c3ccccc3)cn12", "note": "(stereo partly drawn) [CN04, Rp-8-pCPT-PET-cGMPS]", "values": [{"measurement": "Complete release from liposomes (time)", "setting": "[3]", "value": "≤ 48", "unit": "h"}, {"measurement": "Dying photoreceptors (TUNEL+ cells in ONL)", "setting": "[2]", "value": "no significant reduction in dying photoreceptors"}]}
